We go through eight molecules from ChEMBL document CHEMBL4325915, “Synthesis of zwitterionic N-chlorohydantoins for antibacterial applications” (2018).

What all share (assay type): functional
Experiment [1] has as its system Escherichia coli. The experiment in a line: Bactericidal activity against Escherichia coli ATCC 25922 assessed as log reduction in bacterial colonies preincubated for 10 mins followed by bacterial plating on Luria-Bertani plates and measured after 18 to 24 hrs relative to control.
In experiment [2] the test system is Staphylococcus aureus. The experiment in a line: Bactericidal activity against Staphylococcus aureus ATCC 25923 assessed as log reduction in bacterial colonies preincubated for 5 mins followed by bacterial plating on Luria-Bertani plates and measured after 18 to 24 hrs relative to control.
The test system of experiment [3] is Staphylococcus aureus. The experiment can be described thus: Bactericidal activity against Staphylococcus aureus ATCC 25923 assessed as reduction in bacterial colonies preincubated for 10 mins followed by bacterial plating on Luria-Bertani plates and measured after 18 to 24 hrs relative to control. Also noted: concentration or dose not given beside the values.

Experiment [4] relates to Staphylococcus aureus. The experiment in a line: Bactericidal activity against Staphylococcus aureus ATCC 25923 assessed as log reduction in bacterial colonies preincubated for 10 mins followed by bacterial plating on Luria-Bertani plates and measured after 18 to 24 hrs relative to control.
Experiment [5] concerns Escherichia coli. The experiment can be described thus: Bactericidal activity against Escherichia coli ATCC 25922 assessed as reduction in bacterial colonies preincubated for 5 mins followed by bacterial plating on Luria-Bertani plates and measured after 18 to 24 hrs relative to control. Also noted: concentration or dose not given beside the values.
The subject of experiment [6] is Escherichia coli. The experiment in a line: Bactericidal activity against Escherichia coli ATCC 25922 assessed as log reduction in bacterial colonies preincubated for 5 mins followed by bacterial plating on Luria-Bertani plates and measured after 18 to 24 hrs relative to control.
Experiment [7] has as its system Escherichia coli. The experiment can be described thus: Bactericidal activity against Escherichia coli ATCC 25922 assessed as reduction in bacterial colonies preincubated for 10 mins followed by bacterial plating on Luria-Bertani plates and measured after 18 to 24 hrs relative to control. The arrangement: concentration or dose not given beside the values.
In experiment [8] the test system is Staphylococcus aureus. The experiment can be described thus: Bactericidal activity against Staphylococcus aureus ATCC 25923 assessed as reduction in bacterial colonies preincubated for 5 mins followed by bacterial plating on Luria-Bertani plates and measured after 18 to 24 hrs relative to control. The arrangement: concentration or dose not given beside the values.

The subject of experiment [9] is Staphylococcus aureus. The experiment can be described thus: Bactericidal activity against Staphylococcus aureus ATCC 25923 assessed as reduction in bacterial colonies using initial inoculum of 4 x 10^7 CFU/ml preincubated for 5 mins followed by bacterial plating on Luria-Bertani plates and measured after 18 to 24 hrs relative to control. The arrangement: scale not given: the % may be the effect or the level left.

For the molecule `CC1(C)C(=O)N(CCC[N+](C)(C)CCCS(=O)(=O)[O-])C(=O)N1Cl`, the “log(activity)” value in the experiment on Escherichia coli [1] amounted to 1; in the experiment on Staphylococcus aureus [2], 0.1; in the experiment with Staphylococcus aureus [4], 0.29; in the experiment with Escherichia coli [6], 0.13. The Activity in the experiment on Staphylococcus aureus [3] is 49.1%; in the experiment with Escherichia coli [5] it was 25.1%; with Escherichia coli [7], 89.9%; in the experiment with Staphylococcus aureus [8], 19.8%.

In the case of `CC1(C)NC(=O)N(CCO)C1=O`, the “log(activity)” value in the experiment on Escherichia coli [1], in the experiment with Staphylococcus aureus [2], with Staphylococcus aureus [4] and in the experiment on Escherichia coli [6] was 0 in each case. Besides, the Activity with Staphylococcus aureus [3], with Escherichia coli [5], in the experiment with Escherichia coli [7] and in the experiment on Staphylococcus aureus [8] was 0% throughout.

With `CC1(C)NC(=O)N(CCC[N+](C)(C)CCCS(=O)(=O)[O-])C1=O`, the “log(activity)” value in the experiment with Escherichia coli [1], with Staphylococcus aureus [2], with Staphylococcus aureus [4] and in the experiment on Escherichia coli [6] was 0 in each case. Further, the Activity in the experiment on Staphylococcus aureus [3], in the experiment on Escherichia coli [5], in the experiment with Escherichia coli [7] and in the experiment with Staphylococcus aureus [8] was 0% each time.

Consider `CC1(C)C(=O)N(CCO)C(=O)N1Cl`, for which the “log(activity)” value in the experiment with Escherichia coli [1] is recorded as 6.63; with Staphylococcus aureus [2], 6.83; in the experiment on Staphylococcus aureus [4] it was 6.83; in the experiment on Escherichia coli [6], 6.63. For the same molecule, the Activity with Staphylococcus aureus [9] came out at 99.8%; in the experiment on Staphylococcus aureus [3] it was 100%; with Escherichia coli [5] it was 100%; in the experiment on Escherichia coli [7], 100%; with Staphylococcus aureus [8], 100%.

Consider `CC1(C)C(=O)N(CCC[N+](C)(C)CC(=O)[O-])C(=O)N1Cl`, for which the “log(activity)” value with Escherichia coli [1] worked out at 6.63; with Staphylococcus aureus [2] it was 0.18; in the experiment on Staphylococcus aureus [4], 6.83; in the experiment with Escherichia coli [6] it was 0.88. Besides, the Activity is reported as 15% with Staphylococcus aureus [9]; 100% in the experiment on Staphylococcus aureus [3]; 86.7% with Escherichia coli [5]; 100% in the experiment with Escherichia coli [7]; 34.3% in the experiment with Staphylococcus aureus [8].

With `CC1(C)NC(=O)N(CCC[N+](C)(C)C)C1=O.[Cl-]`, the “log(activity)” value with Escherichia coli [1], in the experiment on Staphylococcus aureus [2], in the experiment with Staphylococcus aureus [4] and with Escherichia coli [6] was 0 in each case. The Activity in the experiment with Staphylococcus aureus [3], in the experiment with Escherichia coli [5], in the experiment with Escherichia coli [7] and with Staphylococcus aureus [8] was 0% throughout.

As for `CC1(C)NC(=O)N(CCC[N+](C)(C)CC(=O)[O-])C1=O`, the “log(activity)” value in the experiment on Escherichia coli [1], with Staphylococcus aureus [2], in the experiment with Staphylococcus aureus [4] and in the experiment on Escherichia coli [6] was 0 in each case. For the same molecule, the Activity with Staphylococcus aureus [3], with Escherichia coli [5], with Escherichia coli [7] and in the experiment with Staphylococcus aureus [8] was 0% throughout.

On to `CC1(C)C(=O)N(CCC[N+](C)(C)C)C(=O)N1Cl.[Cl-]`, for which the “log(activity)” value is listed as 2.18 in the experiment on Escherichia coli [1], 0.05 in the experiment on Staphylococcus aureus [2], 0.6 in the experiment on Staphylococcus aureus [4] and 0.24 in the experiment on Escherichia coli [6]. Besides, the Activity was 75% in the experiment with Staphylococcus aureus [3], 42.2% with Escherichia coli [5], 99.3% in the experiment with Escherichia coli [7] and 11.8% in the experiment on Staphylococcus aureus [8].
